Reference: patent US5846720A, “Methods of determining chemicals that modulate expression of genes associated with cardiovascular disease” (Oncogene Science, Inc., priority 1996, dated 1998)

Columns and labels:
hGH promoter = assay: hGH promoter/luciferase reporter assay (high-throughput screen I), 532 cells; type: cell-based, rat; conditions: Table 2, 6 h incubation; for hGH fold inhibition relative to solvent control: transcriptional inhibitors; for hGH fold induction relative to solvent control: transcriptional activators
Excerpt: 6. a GC rat pituitary cell line, transfected with the growth hormone reporter plasmid, designated 532, deposited under ATCC Accession No. CRL 10663.

MMTV promoter = assay: MMTV promoter/luciferase reporter assay (high-throughput screen I, control for specificity), M10 cells; type: cell-based, mouse; conditions: Table 2, 6 h incubation; for MMTV fold inhibition relative to solvent control: transcriptional inhibitors; for MMTV fold induction relative to solvent control: transcriptional activators, original high-throughput assay
Method: pMluci and pSV2Neo, an antibiotic resistance plasmid (84), were co-transfected into NIH/3T3 mouse fibroblast cells using the calcium phosphate precipitation method (85) with a commercially available kit (Pharmacia, Piscataway N.J.). Two days later, cells were transferred to media containing 0.4 mg/ml G418 and were grown for an additional 10-14 days. G418-resistant clones were isolated by standard methods. Once sufficient cell numbers were obtained, clones were analyzed based on several criteria: constitutive luciferase production, induction of luciferase expression by dexamethasone ([…], Sigma, St. Louis, Mo.), satisfactory attachment to microtiter plates used in the high-throughput screen (see section G) and acceptable standard deviation in multiple luciferase expression assays (see below for assay protocol). This analysis was carried out using the luciferase assay conditions described above. Of the clones which satisfied the above criteria for the high throughput screen, one clone, M10, was selected for use.

G-CSF promoter = assay: G-CSF promoter/luciferase reporter assay (high-throughput screen I), G21 cells; conditions: Table 2, 6 h incubation; for GCSF fold inhibition relative to solvent control: transcriptional inhibitors; for GCSF fold induction relative to solvent control: transcriptional activators

SMILES | hGH fold inhibition relative to solvent control (hGH promoter) | MMTV fold inhibition relative to solvent control (MMTV promoter) | GCSF fold inhibition relative to solvent control (G-CSF promoter) | hGH fold induction relative to solvent control (hGH promoter) | MMTV fold induction relative to solvent control (MMTV promoter) | GCSF fold induction relative to solvent control (G-CSF promoter)
O=S(=O)(O)c1ccc(-c2ccnc(-c3nnc(-c4ccc(S(=O)(=O)O)cc4)c(-c4ccc(S(=O)(=O)O)cc4)n3)c2)cc1 [Chemical 1648] | 7.69 fold | 1.00 fold | 0.86 fold | – | – | –
COC(=O)CP(=O)(OCC(F)(F)F)OCC(F)(F)F [Chemical 1651] | 3.57 fold | 0.70 fold | 0.69 fold | – | – | –
O=C(O)c1cc(C(F)(F)F)ccc1C(F)(F)F [Chemical 1655] | 4.76 fold | 0.81 fold | 0.54 fold | – | – | –
OCC1CC2C3CC(CO)C(C3)C2C1 (stereo not drawn) [Chemical 1678] | – | – | – | 7.08 fold | 0.89 fold | 0.36 fold
N#Cc1cccc(Br)c1 [Chemical 1703] | 10.00 fold | 0.90 fold | 0.76 fold | – | – | –
N#Cc1ccc(Br)cc1 [Chemical 1704] | 4.16 fold | 0.94 fold | 0.77 fold | – | – | –
O=C(c1ccccc1)c1ccc(Br)cc1 [Chemical 1705] | 14.28 fold | 0.62 fold | 0.54 fold | – | – | –
Cc1cc(=O)oc2c(CN(CC(=O)O)CC(=O)O)c(O)ccc12 [Chemical 1712] | 8.33 fold | 0.94 fold | 0.74 fold | – | – | –
CC1(C)[C@H]2CC[C@]1(C)C(=O)C2 [Chemical 1720] | 4.76 fold | 0.66 fold | 0.65 fold | – | – | –
CCOC(=O)c1c[nH]c(=S)[nH]c1=O [Chemical 1740] | – | – | – | 17.77 fold | 0.87 fold | 0.74 fold
N[C@@H](CCCCNC(=O)OCc1ccccc1)C(=O)O [Chemical 1747] | – | – | – | 6.16 fold | 0.86 fold | 0.78 fold
Cc1cc(=O)oc2cc(OCC(=O)O)ccc12 [Chemical 1764] | 7.14 fold | 0.82 fold | 0.55 fold | – | – | –
Cc1c(C(=O)O)c(O)cc2c1C(=O)c1c(O)c([C@@H]3O[C@H](CO)[C@@H](O)[C@H](O)[C@H]3O)c(O)c(O)c1C2=O [Chemical 1770] | 10.00 fold | 0.57 fold | 0.54 fold | – | – | –
NCCC(=O)N[C@@H](Cc1cnc[nH]1)C(=O)O [Chemical 1771] | 10.00 fold | 0.72 fold | 0.71 fold | – | – | –
Cc1cc(C2(c3cc(C)c(O)c(CN(CC(=O)O)CC(=O)O)c3)OC(=O)c3ccccc32)cc(CN(CC(=O)O)CC(=O)O)c1O [Chemical 1773] | 10.00 fold | 0.67 fold | 0.62 fold | – | – | –
N=c1cc2oc3cc(N)ccc3nc-2c2ccccc12 [Chemical 1776] | – | – | – | 0.15 fold | 1.36 fold | 3.50 fold
CN(C)C(=S)SCC#N [Chemical 1793] | – | – | – | 0.52 fold | 1.21 fold | 9.50 fold

SMILES | hGH fold inhibition relative to solvent control (hGH promoter) | MMTV fold inhibition relative to solvent control (MMTV promoter) | GCSF fold inhibition relative to solvent control (G-CSF promoter) | hGH fold induction relative to solvent control (hGH promoter) | MMTV fold induction relative to solvent control (MMTV promoter) | GCSF fold induction relative to solvent control (G-CSF promoter)
O=C(O)C1CCC1 [Chemical 1804] | – | – | – | 9.41 fold | 0.49 fold | 1.05 fold
O=c1[nH]c(=O)c2nc3ccccc3nc2[nH]1 [Chemical 1890] | 5.26 fold | 0.58 fold | 0.80 fold | – | – | –
Nc1c2ccccc2nc2ccccc12 [Chemical 1904] | – | – | – | 0.54 fold | 0.82 fold | 4.12 fold
Brc1cccc(-c2ccccc2)c1 [Chemical 1994] | – | – | – | 0.34 fold | 0.63 fold | 3.29 fold
CC(C)(C)c1ccc(Br)cc1 [Chemical 2001] | – | – | – | 0.74 fold | 1.12 fold | 3.11 fold
Cc1n[nH]c(C)c1Br [Chemical 2009] | 0.57 fold | 0.64 fold | 3.70 fold | – | – | –
Nc1c(Br)cc([N+](=O)[O-])cc1[N+](=O)[O-] [Chemical 2010] | 0.63 fold | 3.57 fold | 0.80 fold | – | – | –
COc1c(F)cc(Br)cc1[N+](=O)[O-] [Chemical 2030] | – | – | – | 0.67 fold | 0.87 fold | 5.53 fold
O=C(O)c1ccc(Br)o1 [Chemical 2035] | 7.14 fold | 0.89 fold | 0.57 fold | – | – | –
Nc1nc2c(nc(Br)n2[C@@H]2O[C@H](CO)[C@@H](O)[C@H]2O)c(=O)[nH]1 [Chemical 2036] | 4.34 fold | 0.81 fold | 0.58 fold | – | – | –
CCCCCCCCCCCCCCCCBr [Chemical 2037] | 4.00 fold | 0.50 fold | 0.51 fold | – | – | –
COc1cc2oc(=O)cc(CBr)c2cc1OC [Chemical 2064] | – | – | – | 1.10 fold | 2.53 fold | 0.82 fold
Cc1n[nH]cc1Br [Chemical 2082] | 0.65 fold | 1.23 fold | 5.26 fold | – | – | –
CC(CCl)CBr (stereo not drawn) [Chemical 2096] | – | – | – | 0.61 fold | 0.89 fold | 3.27 fold
ClCCCCCBr [Chemical 2097] | – | – | – | 0.88 fold | 1.22 fold | 5.09 fold
OCc1cccc(Cl)c1 [Chemical 2121] | 0.40 fold | 1.14 fold | 4.76 fold | – | – | –
